The test system of data set [1] is MTX/PTX treated, SSEA4 positive cells. As to the kind of experiment: Neural differentiation (FIG. 30). As to conditions: neural differentiation medium, laminin coated plates, 10-15-days. Type of data set: cell-based, human. As to the method: For neural differentiation, MTX/PTX treated, SSEA4 positive cells were initially grown onto Matrigel-coated 6-well plates in mTeSR1 medium. To induce neural differentiation, the cells were dissociated and passaged onto laminin (20 μg ml−1; Sigma-Aldrich, USA) coated plates and grown in Neurobasal medium (Thermo Fisher Scientific, USA) or RPMI1640 medium (Gibco, USA) for 10-15-days at 37° C./5% CO2. The medium was supplemented with 1% serum free B-27 (Gibco, USA), 1% Glutamax (Gibco, USA), 1% NEAA (Gibco, USA), and 1% penicillin/streptomycin (Gibco, USA).

Data set [2] has as its system HEK293T cells. The experiment in a line: 3-germ layer immunocytochemistry of embryoid bodies (FIG. 29). Particulars: compared with H1 and iPSCs. The data set is classed as cell-based, human. The text has this: (§1) Pluripotent cells can differentiate into all cell types, so these cells can be a biological resource for regenerative medicine. Somatic cells can acquire the embryonic stem cell-like pluripotency by the introduction of four transcription factors, Oct4, Sox2, Klf4 and c-Myc (Yamanaka factors). Murine ES-like cell lines were established from mouse embryonic fibroblasts (MEFs) and skin fibroblasts by simply expressing these four transcription factor genes encoding Oct4, Sox2, Klf4, and c-Myc (71). After introducing active transcription factors into somatic cells, the somatic cells closely resemble ES cells in gene expression patterns, cell biologic and phenotypic characteristics. Since then, numerous studies have established that these transcription factors mediate reprogramming regardless of developmental origins and epigenetic states of a cell. These transcription factors are non-functional in somatic cells due to gene silencing. […] Using the technology disclosed herein, nuclear reprogramming of somatic cells was induced possibly due to active Oct4, Sox2, Nanog, and other pluripotency genes, reduced DNA methylation, reduced histone methylation, and altered metabolism of certain biochemical factors (such as glutamine, glutamate, and GABA). This leads to the formation of embryoid bodies from single cells and differentiation into the mesoderm, endoderm, and neuronal ectoderm lineages with high efficiency in the differentiation medium. The 3-Germ Layer Immunocytochemistry Kit (ThermoFisher Scientific, USA), which analyzes spontaneously differentiated embryoid bodies derived from pluripotent stem cells for the presence of all 3-germ layers, was used to confirm the reprogramming. The assay detected widely accepted markers characteristic of the three embryonic germ layers: beta-Ill tubulin (TUJ1) for ectoderm, smooth muscle actin (SMA) for mesoderm, and alpha-fetoprotein (AFP) for endoderm. […] The ectoderm which differentiates to form the nervous system (spine, peripheral nerves, neurons, and brain) was not tested with this kit; however, the presence of neurons was confirmed by a different marker. A Human Neural Stem Cell Immunocytochemistry Kit (ThermoFisher Scientific, USA) which enables a convenient image-based analysis of common markers of human neural stem cells such as Nestin was used. […] Together, the disclosed methods result in the presence of all 3-germ layers in the MTX/PTX treated cells and these treated cells can differentiate into all cell types including beta cells.
(§2) A 3-germ layer immunocytochemistry kit (Thermo Fisher Scientific, USA) was used to assess the pluripotency of embryoid bodies derived from MTX and PTX treated cells.

Data set [3] concerns HF57. The description is as above. Type of data set: cell-based, human. As to conditions: compared with H1 and iPSCs.
Text: as §1, §2

Data set [4] relates to HEK293T cells. The experiment in a line: Histone methylation levels (FIG. 19). Type of data set: cell-based, human. As to conditions: vs control. As for the experimental part: (§3) Calculation of methylation level (based on OD values as shown on y-axis) was performed according to manufacturer's instructions. Representative histogram from three independent experiments are shown. All data are presented as the mean±standard error (SE) of triplicate measurements. *P<0.05, ***P<0.001.

Another data set relates to HF57 cells. As to the kind of experiment: Histone methylation levels (FIG. 19). Particulars: vs control. The data set is classed as cell-based, human. As to the method: as §3
The nature of data set [5]: Cell viability after MTX or PTX treatment (FIG. 17). Type of data set: cell-based. As to conditions: human; for viability: post MTX or PTX treatment; for viability at 5 days: HEK293T cells, after 5-days of MTX or PTX treatment, read-out: viable cells. As to the method: Call quantification, imaging, and statistical analysis: Cells were quantified using a Cellometer Auto T4 counting chamber after mixing in a 1:1 ratio with Trypan blue (MilliporeSigma) to exclude dead cells. The average of 2 separate counts was taken to calculate the cell numbers. All live cell imaging was conducted using an EVOS FL Auto microscope (Thermo Fisher Scientific). All statistical analysis was performed using a paired Student's t test with Bonferroni correction or 1-sample Student's t test. Values of P<0.05 were considered significant.

Data set [6] relates to HF57. As to the kind of experiment: Embryoid body formation from SSEA4 positive sorted cells (FIG. 27). As to conditions: treated 7 or more days, low methionine, mTeSR Plus + HT, after 15-days. Type of data set: cell-based, human. As for the experimental part:
HEK293T and HF57 were treated with MTX and PTX for 7 or more days in low methionine condition. SSEA4 positive cells were sorted using cell sorter and maintained on mTeSR™ Plus medium supplemented with HT.

Another data set concerns 293T cells. As to the kind of experiment: Global DNA methylation, 5mC ELISA (FIG. 18). Type of data set: cell-based, human. As to conditions: 500 nM MTX, 1 μM PTX; 7-days; vs untreated cells. As for the experimental part: Equal amount of DNA (100 ng) was analyzed with 5mC enzyme-linked immunosorbent assay (ELISA) (EpiGentek). […] Error bars represent the standard error for at least three independent experiments and three technical replicates.
Global DNA methylation measurement Global 5-methylcytosine (5-mC) levels were quantified using the MethylFlash Methylated DNA Quantification Kits (Epigentek, Farmingdale, NY, USA). The DNA concentration was determined using the Qubit Assay (Thermo Fisher Scientific) according to the manufacturer's protocol. Briefly, 100 ng of DNA was used for incubation with both capture and detection antibodies using MethylFlash Methylated DNA Quantification Kit (Colorimetric) from Epigentek. Subsequently, measurements of the absorbance of the sample at 450 nm in a microplate spectrophotometer (BioTek Instruments, Winooski, VT, USA) were performed with the percentage of the whole genome 5-mC calculation according to manufacturer's instructions. Genomic methylation levels in study samples were expressed as percentage of 5-mC.
MTX and PTX are antifolates that inhibit enzymes (particularly thymidylate synthase and dihydrofolate reductase) involved in folate metabolism and purine and pyrimidine synthesis (100-103). […] Equal amount of gDNA (100 ng) was analyzed with 5mC enzyme-linked immunosorbent assay (ELISA) (EpiGentek).

Entries after “also recorded” stand apart in the source; their conditions may differ.

The record followed here is patent US20250171744A1, “METHODS OF REPROGRAMMING SOMATIC CELLS AND MATERIALS RELATED THERETO” (CITY OF HOPE, priority 2019, published 2025).

For the molecule `CN(Cc1cnc2nc(N)nc(N)c2n1)c1ccc(C(=O)N[C@@H](CCC(=O)O)C(=O)O)cc1` [MTX, methotrexate], the “differentiation into neural cells” value in data set [1] is given as “can differentiate into neural cells”. Moreover, the “presence of three germ layers in embryoid bodies” value in the data set on HEK293T cells [2] and with HF57 [3] was “confirmed the presence of all three germ layers” throughout. In addition, the “Dimethyl H3-K9 methylation” value in the data set with HEK293T cells [4] and with HF57 cells was “significantly reduced” throughout. The “global histone H3-K4 methylation” value with HEK293T cells [4] and in the data set with HF57 cells was “significantly reduced” in each case. For the same molecule, the viability in data set [5] (HDF fibroblast cell line) and in data set [5] (HF57 fibroblast cell line) was 60 to 75% in each case. Also, the viability at 5 days in data set [5] was 20 to 25%. Further, the embryoid body formation result in the data set on HF57 [6] is recorded as “start forming embryoid bodies”. For the same molecule, the “global DNA methylation (5mC content)” value with 293T cells was “significantly lower levels of DNA methylation; also recorded: significant reduction in global DNA methylation”.
In the case of `Nc1nc2[nH]cc(CCc3ccc(C(=O)N[C@@H](CCC(=O)O)C(=O)O)cc3)c2c(=O)[nH]1` [PTX, pemetrexed], in data set [1], the “differentiation into neural cells” value is reported as “can differentiate into neural cells”. Moreover, the “presence of three germ layers in embryoid bodies” value with HEK293T cells [2] and in the data set on HF57 [3] was “confirmed the presence of all three germ layers” each time. The “Dimethyl H3-K9 methylation” value in the data set on HEK293T cells [4] and in the data set on HF57 cells was “significantly reduced” each time. In addition, the “global histone H3-K4 methylation” value in the data set with HEK293T cells [4] and in the data set with HF57 cells was “significantly reduced” each time. Also, the viability in data set [5] (HDF fibroblast cell line) and in data set [5] (HF57 fibroblast cell line) was 60 to 75% each time. Moreover, the viability at 5 days in data set [5] was in the range of 20 to 25%. In the data set with HF57 [6], the embryoid body formation result was “start forming embryoid bodies”. Also, the “global DNA methylation (5mC content)” value in the data set on 293T cells is reported as “significantly lower levels of DNA methylation; also recorded: significant reduction in global DNA methylation”.
